Target: human MGL from HeLa cells (Homo sapiens (Human), UniProt Q99685)
Assay: MGL in vitro activity assay ([glycerol-1,3-3H]-oleoyl glycerol hydrolysis, activated carbon filtration)
Type: biochemical
Conditions: 300 nM [Glycerol-1,3-3H]-oleoyl glycerol, one hour
Method: The assay used to measure the in vitro activity of MGL is adapted from the assay used for another serine hydrolase (FAAH) described in Wilson et al., 2003 (A high-throughput-compatible assay for determining the activity of fatty acid amide hydrolase. Wilson S J, Lovenberg T W, Barbier A J. Anal Biochem. 2003 Jul. 15; 318(2):270-5). The assay consists of combining endogenously expressed MGL from HeLa cells with test compounds, adding [glycerol-1,3-^3H]-oleyl glycerol, incubating for one hour, and then measuring the amount of cleaved [1,3-^3H]-glycerol that passes through an activated carbon filter. The amount of cleaved, tritiated glycerol passing through the carbon filter is proportional to the activity of the MGL enzyme in a particular well/test condition.
Standard conditions for this assay combine 300 nM [Glycerol-1,3-^3H]-oleoyl glycerol with human MGL from HeLa cells and test compounds for one hour, after which the reaction is filtered through activated carbon and tritium is measured in the flow through. The test compound concentration in screening mode is 10 μM, while the highest compound concentration in IC50 assays is determined empirically. MGL is the predominant hydrolase in HeLa cells/cell homogenates.

human MGL from HeLa cells, sequence (Q99685 whole entry): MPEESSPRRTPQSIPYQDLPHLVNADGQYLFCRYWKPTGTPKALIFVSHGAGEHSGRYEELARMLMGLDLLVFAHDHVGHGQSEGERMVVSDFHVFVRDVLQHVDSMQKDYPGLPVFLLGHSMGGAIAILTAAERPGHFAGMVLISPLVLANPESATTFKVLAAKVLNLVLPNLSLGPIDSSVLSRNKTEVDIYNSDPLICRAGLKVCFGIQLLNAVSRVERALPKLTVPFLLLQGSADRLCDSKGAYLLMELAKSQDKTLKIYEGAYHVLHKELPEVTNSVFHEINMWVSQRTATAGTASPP

Structure (SMILES)	IC50 [nM]
CCOc1cccc(C2CCC3(CC2)CN(C(=O)[C@H]2C[C@@](C)(O)C2)C3)c1 [Example 132, (7-(3-Ethoxyphenyl)-2-azaspiro[3.5]nonan-2-yl)((1s,3s)-3-hydroxy-3-methylcyclobutyl)methanone]	41
CCc1ccc(C2CCC3(C2)CN(C(=O)[C@H]2C[C@@](C)(O)C2)C3)cc1 (mixture of isomers) [Example 96, (rac)-(6-(4-Ethylphenyl)-2-azaspiro[3.4]octan-2-yl)((1s,3s)-3-hydroxy-3-methylcyclobutyl)methanone]	18
CC(C)c1ccc(CC2CCC3(C2)CN(C(=O)[C@H]2C[C@@](C)(O)C2)C3)cc1 (mixture of isomers) [Example 170, (rac)-((1s,3s)-3-Hydroxy-3-methylcyclobutyl)(6-(4-isopropylbenzyl)-2-azaspiro[3.4]octan-2-yl)methanone]	10
Cn1ncc2cc(C3CCC4(C3)CN(C(=O)[C@H]3C[C@@](C)(O)C3)C4)ccc21 (mixture of isomers) [Example 102, (rac)-((1s,3s)-3-Hydroxy-3-methylcyclobutyl)(6-(1-methyl-1H-indazol-5-yl)-2-azaspiro[3.4]octan-2-yl)methanone]	301
CC(C)c1ccc(CC2CC3(C2)CN(C(=O)[C@H]2C[C@@](C)(O)C2)C3)cc1 [Example 185, ((1s,3s)-3-Hydroxy-3-methylcyclobutyl)(6-(4-isopropylbenzyl)-2-azaspiro[3.3]heptan-2-yl)methanone]	2.3
Cc1cc(OC(F)(F)F)ccc1C1CCC2(C1)CN(C(=O)[C@H]1C[C@@](C)(O)C1)C2 (mixture of isomers) [Example 9, (rac)-((1s,3s)-3-Hydroxy-3-methylcyclobutyl)(6-(2-methyl-4-(trifluoromethoxy)phenyl)-2-azaspiro[3.4]octan-2-yl)methanonemethanone]	3.4
COc1ccc(C2CCC3(CC2)CN(C(=O)[C@H]2C[C@@](C)(O)C2)C3)cc1C [Example 105, ((1s,3s)-3-Hydroxy-3-methylcyclobutyl)(7-(4-methoxy-3-methylphenyl)-2-azaspiro[3.5]nonan-2-yl)methanone]	68
Cc1cc(C(F)F)cc(C2CCC3(C2)CN(C(=O)[C@H]2C[C@@](C)(O)C2)C3)c1 (mixture of isomers) [Example 94, (rac)-(6-(3-(Difluoromethyl)-5-methylphenyl)-2-azaspiro[3.4]octan-2-yl)((1s,3s)-3-hydroxy-3-methylcyclobutyl)methanone]	60
Cc1cc(C2CCC3(C2)CN(C(=O)[C@H]2C[C@@](C)(O)C2)C3)ccc1C(F)F (mixture of isomers) [Example 12, (rac)-(6-(4-(Difluoromethyl)-3-methylphenyl)-2-azaspiro[3.4]octan-2-yl)((1s,3s)-3-hydroxy-3-methylcyclobutyl)methanone]	25
C[C@]1(O)C[C@@H](C(=O)N2CC3(CC[C@@H](c4ccc(C5CC5)cc4)C3)C2)C1 [Example 51, ((R)-6-(4-Cyclopropylphenyl)-2-azaspiro[3.4]octan-2-yl)((1s,3S)-3-hydroxy-3-methylcyclobutyl)methanone]	5.5
C[C@]1(O)C[C@@H](C(=O)N2CC3(CC(c4ccc5cnccc5c4)C3)C2)C1 [Example 31, ((1s,3s)-3-Hydroxy-3-methylcyclobutyl)(6-(isoquinolin-6-yl)-2-azaspiro[3.3]heptan-2-yl)methanone]	1600
CCOc1cc(C2CCC3(CC2)CN(C(=O)[C@H]2C[C@@](C)(O)C2)C3)cc(C(F)(F)F)c1 [Example 120, (7-(3-Ethoxy-5-(trifluoromethyl)phenyl)-2-azaspiro[3.5]nonan-2-yl)((1s,3s)-3-hydroxy-3-methylcyclobutyl)methanone]	141
CC(C)(C)c1cccc(C2CC3(C2)CN(C(=O)[C@H]2C[C@@](C)(O)C2)C3)c1 [Example 1, (6-(3-(tert-Butyl)phenyl)-2-azaspiro[3.3]heptan-2-yl)((1s,3s)-3-hydroxy-3-methylcyclobutyl)methanone]	9.9
CC(C)c1cccc(C2CCC3(C2)CN(C(=O)[C@H]2C[C@](O)(C(F)(F)F)C2)C3)c1 (mixture of isomers) [Example 88, (rac)-((1s,3s)-3-Hydroxy-3-(trifluoromethyl)cyclobutyl)(6-(3-isopropylphenyl)-2-azaspiro[3.4]octan-2-yl)methanone]	59
C[C@]1(O)C[C@@H](C(=O)N2CC3(CC(Cc4ccccc4C(F)(F)F)C3)C2)C1 [Example 199, ((1s,3s)-3-Hydroxy-3-methylcyclobutyl)(6-(2-(trifluoromethyl)benzyl)-2-azaspiro[3.3]heptan-2-yl)methanone]	4.1
Cc1cc(C2CC2)ccc1C1CCC2(C1)CN(C(=O)[C@H]1C[C@@](C)(O)C1)C2 (mixture of isomers) [Example 75, (rac)-(6-(4-Cyclopropyl-2-methylphenyl)-2-azaspiro[3.4]octan-2-yl)((1s,3s)-3-hydroxy-3-methylcyclobutyl)methanone]	2.4
Cc1ccc(CC2CCC3(C2)CN(C(=O)[C@H]2C[C@@](C)(O)C2)C3)cc1 (mixture of isomers) [Example 169, (rac)-((1s,3s)-3-Hydroxy-3-methylcyclobutyl)(6-(4-methylbenzyl)-2-azaspiro[3.4]octan-2-yl)methanone]	36

The remaining lines, values ahead:

IC50 [nM]	Structure (SMILES)
0.22	CCOc1nc(OC2CCC3(CC2)CN(C(=O)[C@H]2C[C@@](C)(O)C2)C3)ccc1C(F)(F)F [Example 459, (7-((6-Ethoxy-5-(trifluoromethyl)pyridin-2-yl)oxy)-2-azaspiro[3.5]nonan-2-yl)((1s,3s)-3-hydroxy-3-methylcyclobutyl)methanone]
7.4	CC(C)c1cccc(OC2CC3(C2)CN(C(=O)[C@H]2C[C@@](C)(O)C2)C3)c1C(F)(F)F [Example 251, ((1s,3s)-3-Hydroxy-3-methylcyclobutyl)(6-(3-isopropyl-2-(trifluoromethyl)phenoxy)-2-azaspiro[3.3]heptan-2-yl)methanone]
25	Cc1nc(OC2CCC3(CC2)CN(C(=O)[C@H]2C[C@@](C)(O)C2)C3)ccc1Cl [Example 434, (7-((5-Chloro-6-methylpyridin-2-yl)oxy)-2-azaspiro[3.5]nonan-2-yl)((1s,3s)-3-hydroxy-3-methylcyclobutyl)methanone]
1.3	COc1nc(OC2CCC3(CC2)CN(C(=O)[C@H]2C[C@@](C)(O)C2)C3)ccc1C1CC1 [Example 455, (7-((5-Cyclopropyl-6-methoxypyridin-2-yl)oxy)-2-azaspiro[3.5]nonan-2-yl)((1s,3s)-3-hydroxy-3-methylcyclobutyl)methanone]
13	C[C@]1(O)C[C@@H](C(=O)N2CC3(CCC(Oc4ncc(C(F)(F)F)cc4F)CC3)C2)C1 [Example 457, (7-((3-Fluoro-5-(trifluoromethyl)pyridin-2-yl)oxy)-2-azaspiro[3.5]nonan-2-yl)((1s,3s)-3-hydroxy-3-methylcyclobutyl)methanone]
541	Cc1ccccc1OC1CC2(C1)CN(C(=O)[C@H]1C[C@@](C)(O)C1)C2 [Example 238, ((1s,3s)-3-Hydroxy-3-methylcyclobutyl)(6-(o-tolyloxy)-2-azaspiro[3.3]heptan-2-yl)methanone]
273	CC(C)(C)c1cccc(CC2CC3(C2)CN(C(=O)[C@H]2C[C@@](C)(O)C2)C3)n1 [Example 233, (6-((6-(tert-Butyl)pyridin-2-yl)methyl)-2-azaspiro[3.3]heptan-2-yl)((1s,3s)-3-hydroxy-3-methylcyclobutyl)methanone]
6.3	CC(C)c1ccc(OC2CCC3(CC2)CN(C(=O)[C@H]2C[C@@](C)(O)C2)C3)cc1 [Example 242, ((1s,3s)-3-Hydroxy-3-methylcyclobutyl)(7-(4-isopropylphenoxy)-2-azaspiro[3.5]nonan-2-yl)methanone]
146	Cn1ncc2ccc(OC3CCC4(CC3)CN(C(=O)[C@H]3C[C@@](C)(O)C3)C4)nc21 [Example 477, ((1s,3s)-3-Hydroxy-3-methylcyclobutyl)(7-((1-methyl-1H-pyrazolo[3,4-b]pyridin-6-yl)oxy)-2-azaspiro[3.5]nonan-2-yl)methanone]
15	COc1cc(OC2CCC3(CC2)CN(C(=O)[C@H]2C[C@@](C)(O)C2)C3)ccc1Cl [Example 414, (7-(4-Chloro-3-methoxyphenoxy)-2-azaspiro[3.5]nonan-2-yl)((1s,3s)-3-hydroxy-3-methylcyclobutyl)methanone]
22	Cc1c(Cl)cccc1OC1CCC2(CC1)CN(C(=O)[C@H]1C[C@@](C)(O)C1)C2 [Example 413, (7-(3-Chloro-2-methylphenoxy)-2-azaspiro[3.5]nonan-2-yl)((1s,3s)-3-hydroxy-3-methylcyclobutyl)methanone]
77	C[C@H](c1ccccc1)C1CC2(C1)CN(C(=O)[C@H]1C[C@@](C)(O)C1)C2 (stereo in doubt) [Example 311, ((1s,3*R)-3-Hydroxy-3-methylcyclobutyl)(6-((*S)-1-phenylethyl)-2-azaspiro[3.3]heptan-2-yl)methanone]
2.1	Cc1cccc(C(F)(F)F)c1CC1CC2(C1)CN(C(=O)[C@H]1C[C@@](C)(O)C1)C2 [Example 226, ((1s,3s)-3-Hydroxy-3-methylcyclobutyl)(6-(2-methyl-6-(trifluoromethyl)benzyl)-2-azaspiro[3.3]heptan-2-yl)methanone]
50	COc1cccc(C2CCC3(CC2)CN(C(=O)[C@H]2C[C@@](C)(O)C2)C3)c1F [Example 366, (7-(2-Fluoro-3-methoxyphenyl)-2-azaspiro[3.5]nonan-2-yl)((1s,3s)-3-hydroxy-3-methylcyclobutyl)methanone]
